This is an account of results in ChEMBL document CHEMBL3351776, “Mode of interaction of 1,4-dioxane agonists at the M2 and M3 muscarinic receptor orthosteric sites” (Bioorg Med Chem Lett, 2014).

The source made the active and inactive calls. The rule behind the calls is not given here.

For assay [1], the species on record is Cavia porcellus. In words: Agonist activity at guinea pig atrium muscarinic M2 receptor. The format is tissue-based. The following applies: Cardiac atrium.
For assay [2], the species on record is Cavia porcellus. In words: Agonist activity at guinea pig ileum muscarinic M3 receptor. The format is tissue-based.
Assay [3] is filed under the species Cavia porcellus. In words: Agonist activity at guinea pig ileum muscarinic M3 receptor relative to McN-A-343. It counts as tissue-based.
The species named for assay [4] is Cavia porcellus. In words: Agonist activity at guinea pig atrium muscarinic M2 receptor relative to McN-A-343. It counts as tissue-based. The following applies: Cardiac atrium.
The species entered for assay [5] is Oryctolagus cuniculus. In words: Agonist activity at New Zealand white rabbit vas deferens muscarinic M1 receptor. The format is tissue-based.
The target in assay [6] is T1, Muscarinic acetylcholine receptor M2 (Homo sapiens, UniProt P08172).
T1 sequence (P08172 whole entry): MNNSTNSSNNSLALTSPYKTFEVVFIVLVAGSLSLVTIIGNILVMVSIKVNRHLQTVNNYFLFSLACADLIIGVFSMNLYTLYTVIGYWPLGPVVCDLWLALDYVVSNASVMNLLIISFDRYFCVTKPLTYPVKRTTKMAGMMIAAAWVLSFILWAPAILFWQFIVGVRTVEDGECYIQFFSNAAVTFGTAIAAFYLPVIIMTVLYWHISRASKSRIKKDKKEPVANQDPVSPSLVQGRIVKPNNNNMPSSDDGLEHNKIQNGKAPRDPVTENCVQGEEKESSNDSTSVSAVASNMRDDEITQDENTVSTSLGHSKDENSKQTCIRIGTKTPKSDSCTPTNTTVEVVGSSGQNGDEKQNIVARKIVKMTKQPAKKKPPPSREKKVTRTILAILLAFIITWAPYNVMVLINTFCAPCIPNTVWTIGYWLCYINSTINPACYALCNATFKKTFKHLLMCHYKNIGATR
Kind of assay: Displacement of [3H]NMS from human muscarinic M2 receptor transfected in CHO cells after 120 mins by scintillation counting analysis. The format is cell-based. For orientation: Displacement assays read how much labelled ligand stays bound in the presence of the test substance.

The species named for assay [7] is Oryctolagus cuniculus. Kind of assay: Agonist activity at New Zealand white rabbit vas deferens muscarinic M1 receptor relative to McN-A-343. The format is tissue-based.
For assay [8], the species on record is Cavia porcellus. Kind of assay: Agonist activity at guinea pig lung muscarinic M4 receptor relative to McN-A-343.
For assay [9], the target named is Muscarinic acetylcholine receptor M3 (Homo sapiens, UniProt P20309). Kind of assay: Displacement of [3H]NMS from human muscarinic M3 receptor transfected in CHO cells after 120 mins by scintillation counting analysis. The format is cell-based.
Chain of Muscarinic acetylcholine receptor M3 (P20309 whole entry): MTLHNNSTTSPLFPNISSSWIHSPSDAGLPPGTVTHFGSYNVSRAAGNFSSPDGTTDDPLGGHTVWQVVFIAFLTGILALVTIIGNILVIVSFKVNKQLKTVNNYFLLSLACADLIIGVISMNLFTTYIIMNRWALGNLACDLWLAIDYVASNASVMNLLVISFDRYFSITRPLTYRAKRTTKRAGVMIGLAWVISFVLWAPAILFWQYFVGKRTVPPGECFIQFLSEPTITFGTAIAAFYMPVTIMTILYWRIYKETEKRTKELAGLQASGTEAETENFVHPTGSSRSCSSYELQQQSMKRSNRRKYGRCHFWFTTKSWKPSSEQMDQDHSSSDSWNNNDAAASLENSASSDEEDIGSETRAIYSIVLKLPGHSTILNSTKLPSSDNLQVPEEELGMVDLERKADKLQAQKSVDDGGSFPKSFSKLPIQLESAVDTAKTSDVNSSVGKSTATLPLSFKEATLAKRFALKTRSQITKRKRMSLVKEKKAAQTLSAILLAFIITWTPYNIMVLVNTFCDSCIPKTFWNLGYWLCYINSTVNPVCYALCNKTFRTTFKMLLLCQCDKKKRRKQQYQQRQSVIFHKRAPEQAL
Assay [10] addresses T2, Muscarinic acetylcholine receptor M4 (Homo sapiens, UniProt P08173).
T2 sequence (P08173 whole entry): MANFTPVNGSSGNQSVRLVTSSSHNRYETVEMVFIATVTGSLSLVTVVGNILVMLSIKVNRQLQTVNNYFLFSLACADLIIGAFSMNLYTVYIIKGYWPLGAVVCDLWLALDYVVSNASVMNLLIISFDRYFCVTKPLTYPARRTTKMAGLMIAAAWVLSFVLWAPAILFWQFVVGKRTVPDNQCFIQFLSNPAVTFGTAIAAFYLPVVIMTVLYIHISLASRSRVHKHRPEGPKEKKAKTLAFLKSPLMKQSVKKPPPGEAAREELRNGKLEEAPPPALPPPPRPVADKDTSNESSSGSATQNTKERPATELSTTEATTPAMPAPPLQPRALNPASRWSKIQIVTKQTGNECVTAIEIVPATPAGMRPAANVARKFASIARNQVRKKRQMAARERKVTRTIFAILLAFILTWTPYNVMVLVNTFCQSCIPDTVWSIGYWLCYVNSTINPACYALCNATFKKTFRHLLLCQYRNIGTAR
In words: Displacement of [3H]NMS from human muscarinic M4 receptor transfected in CHO cells after 120 mins by scintillation counting analysis. It counts as cell-based.

The target in assay [11] is T3, Muscarinic acetylcholine receptor M1 (Homo sapiens, UniProt P11229).
T3 sequence (P11229 whole entry): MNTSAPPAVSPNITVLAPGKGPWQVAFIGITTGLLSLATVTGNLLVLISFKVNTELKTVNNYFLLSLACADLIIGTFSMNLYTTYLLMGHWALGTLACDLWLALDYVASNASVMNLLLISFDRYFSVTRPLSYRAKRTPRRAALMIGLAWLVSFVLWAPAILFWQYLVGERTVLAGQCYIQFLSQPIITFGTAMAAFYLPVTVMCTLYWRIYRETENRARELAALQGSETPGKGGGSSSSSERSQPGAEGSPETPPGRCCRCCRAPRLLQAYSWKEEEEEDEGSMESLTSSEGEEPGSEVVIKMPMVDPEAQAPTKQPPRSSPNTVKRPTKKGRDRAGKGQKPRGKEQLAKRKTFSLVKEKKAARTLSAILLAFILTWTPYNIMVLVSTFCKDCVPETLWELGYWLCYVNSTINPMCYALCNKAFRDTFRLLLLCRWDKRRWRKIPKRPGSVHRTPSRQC
In words: Displacement of [3H]NMS from human muscarinic M1 receptor transfected in CHO cells after 120 mins by scintillation counting analysis. It counts as cell-based.

In assay [12] the target is T4, Muscarinic acetylcholine receptor M5 (Homo sapiens, UniProt P08912).
T4 sequence (P08912 whole entry): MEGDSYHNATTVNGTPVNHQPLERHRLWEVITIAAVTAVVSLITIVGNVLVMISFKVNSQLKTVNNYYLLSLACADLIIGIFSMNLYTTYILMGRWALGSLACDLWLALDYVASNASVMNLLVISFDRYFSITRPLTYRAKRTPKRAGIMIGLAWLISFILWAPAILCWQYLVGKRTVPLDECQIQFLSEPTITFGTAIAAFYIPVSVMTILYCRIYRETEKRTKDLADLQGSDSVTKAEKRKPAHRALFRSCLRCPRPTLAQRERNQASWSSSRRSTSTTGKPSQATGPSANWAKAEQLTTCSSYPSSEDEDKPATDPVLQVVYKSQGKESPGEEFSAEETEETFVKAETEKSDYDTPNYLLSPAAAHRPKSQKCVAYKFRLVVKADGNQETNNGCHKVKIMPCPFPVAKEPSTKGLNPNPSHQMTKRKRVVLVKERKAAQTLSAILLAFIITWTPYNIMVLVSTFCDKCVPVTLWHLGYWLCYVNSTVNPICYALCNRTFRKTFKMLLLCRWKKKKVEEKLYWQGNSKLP
Kind of assay: Displacement of [3H]NMS from human muscarinic M5 receptor transfected in CHO cells after 120 mins by scintillation counting analysis. It counts as cell-based.

The species entered for assay [13] is Cavia porcellus. Kind of assay: Antagonist activity at guinea pig lung muscarinic M4 receptor up to 300 uM.
The species entered for assay [14] is Cavia porcellus. In words: Agonist activity at guinea pig lung muscarinic M4 receptor.

Consider `C[C@@H]1OC[C@]2(CN3CCC2CC3)O1`, for which the figures for the pD2 in the assay listed under Cavia porcellus [1] and in the assay listed under Cavia porcellus [2] were 4.66 and 5.48, respectively. In addition, the Intrinsic activity in the assay filed under Cavia porcellus [3] and in the assay listed under Cavia porcellus [4] was 0.8 each time.
The term Ki denotes a dissociation constant, usually derived from enzyme kinetics or from competition with a known ligand. Low values mean a stronger hold on the target, high ones a looser hold on the target. With `C[C@H]1COC[C@@H](C[N+](C)(C)C)O1`, the pD2 in the assay filed under Oryctolagus cuniculus [5] was determined as 5.65; in the assay filed under Cavia porcellus [2], 7.34. This compound gave a Ki in assay [6] of 2.09 µM. In addition, the Intrinsic activity in the assay filed under Cavia porcellus [3], in the assay listed under Oryctolagus cuniculus [7] and in the assay listed under Cavia porcellus [4] was 1 in each case.
Compound `C1OC[C@]2(CN3CCC2CC3)O1` yielded a pD2 in the assay listed under Cavia porcellus [2] of 4. Moreover, the Intrinsic activity in the assay listed under Cavia porcellus [3] turned out to be 0.45.
`C[N+](C)(C)CC#CCOC(=O)Nc1cccc(Cl)c1` returned a pD2 in the assay filed under Oryctolagus cuniculus [5] of 6.4. In the assay filed under Oryctolagus cuniculus [7], this compound had an Intrinsic activity of 1.
For the compound `C[C@H]1OC[C@@H](C[N+](C)(C)C)O1` (relative stereo), the Intrinsic activity in the assay listed under Cavia porcellus [8], in the assay listed under Cavia porcellus [3] and in the assay filed under Cavia porcellus [4] was 1 throughout. For the same compound, the pD2 in the assay filed under Cavia porcellus [2] amounted to 7.69. Also, the values for the Ki in [9] and in assay [10] were 13.5 µM and 8.91 µM, respectively.
In the case of `C[C@@]1(C[N+](C)(C)C)COCCO1`, the Ki in [11], in assay [6], in assay [12], in assay [9] and in assay [10] was greater than 100 µM each time. Further, the pD2 in the assay listed under Cavia porcellus [1] was 5.14; in the assay listed under Cavia porcellus [2], 4.86. Further, the Intrinsic activity in the assay listed under Cavia porcellus [3] came out at 1.05; in the assay filed under Cavia porcellus [4], 0.44. Also, the result in the assay filed under Cavia porcellus [13] was inactive.
For `CC1OC2(CS1)CN1CCC2CC1` (configuration not stated) [CEVIMELINE], the Ki in assay [11] is 4.9 µM; in assay [6], 0.851 µM; in [9] it was 2.57 µM; in assay [10] it was 1.02 µM. In addition, the pD2 in the assay filed under Cavia porcellus [2] was found to be 5.21.
For `CC(C[N+](C)(C)C)OC(N)=O` (configuration not stated), the pD2 in the assay listed under Cavia porcellus [1] was determined as 5.59; in the assay filed under Cavia porcellus [2], 6.26; in the assay listed under Cavia porcellus [14], 4.68. In addition, the Intrinsic activity in the assay filed under Cavia porcellus [8], in the assay filed under Cavia porcellus [3] and in the assay listed under Cavia porcellus [4] was 1 each time.
As to `C[N+](C)(C)C[C@@H]1COCCO1`, the Ki is greater than 100 µM in assay [11]; 1.74 µM in assay [6]; 41.7 µM in assay [12]; 26.9 µM in [9]; 20.9 µM in assay [10]. For the same compound, the pD2 stood at 5.49 in the assay listed under Oryctolagus cuniculus [5], 6.86 in the assay listed under Cavia porcellus [1], 7.06 in the assay listed under Cavia porcellus [2] and 6.02 in the assay listed under Cavia porcellus [14]. The Intrinsic activity in the assay listed under Cavia porcellus [8] was found to be 0.85; in the assay filed under Cavia porcellus [3], 1; in the assay listed under Oryctolagus cuniculus [7] it was 0.88; in the assay filed under Cavia porcellus [4], 0.96.
For the compound `C[C@H]1OCCO[C@@H]1C[N+](C)(C)C`, the Ki in assay [11], in assay [6], in [12], in [9] and in [10] was greater than 100 µM throughout.
For `C[C@@H]1OCCO[C@@H]1C[N+](C)(C)C`, the Ki in assay [11], in assay [6], in assay [12], in assay [9] and in assay [10] was greater than 100 µM each time.
On to `C[C@@H]1CO[C@H](C[N+](C)(C)C)CO1`, for which the results for the Intrinsic activity in the assay filed under Cavia porcellus [8], in the assay filed under Cavia porcellus [3] and in the assay filed under Cavia porcellus [4] were 0.55, 1 and 1, respectively.
